In brackets after ≈: the same amount, converted by molar mass. Like-named read-outs stand apart in the source and are kept apart here.
Test system: P. aeruginosa
Experiment: MIC, broth microdilution, CDC/FDA Antibiotic Resistance Isolate Bank (Example 7, Tables 10, 15)
Assay type: cell-based
Details: for MIC: Pseudomonas aeruginosa, read-out: MIC
[1] = 26 metallo-carbapenemase-producing P. aeruginosa strains, β-lactamase inhibitor µg/mL in parentheses
[2] = 96 strains of P. aeruginosa, β-lactamase inhibitor µg/mL in parentheses

`O=C(O)c1cn(C2CC2)c2cc(N3CCNCC3)c(F)cc2c1=O` [Ciprofloxacin, ciprofloxacin] was tested, and the “MIC against 26 metallo-carbapenemase-producing strains MIC50” value [1] was 32 µg(mL), the “MIC against 26 metallo-carbapenemase-producing strains MIC90” value [1] was 64 µg(mL) and the “MIC against 96 strains of P. aeruginosa MIC50” value [2] was 16 µg(mL). For the same compound, the “MIC against 96 strains of P. aeruginosa MIC90” value [2] was 64 µg(mL), the MIC (P. aeruginosa KUB No. 5602, AR Bank # 105) was over 64 µg/mL and the MIC (P. aeruginosa KUB No. 5665, AR Bank # 232) was 2 µg/mL (≈ 6.04 µM). For the same compound, the MIC (P. aeruginosa KUB No. 5666, AR Bank # 23) was 0.5 µg/mL (≈ 1.51 µM), the MIC (P. aeruginosa KUB No. 5667, AR Bank # 234) was 2 µg/mL (≈ 6.04 µM) and the MIC (P. aeruginosa KUB No. 5669, AR Bank # 236) was 4 µg/mL (≈ 12.1 µM). It also gave an MIC (P. aeruginosa KUB No. 5675, AR Bank # 242) of 8 µg/mL (≈ 24.1 µM), an MIC (P. aeruginosa KUB No. 5676, AR Bank # 243) of 8 µg/mL (≈ 24.1 µM) and an MIC (P. aeruginosa KUB No. 5705, AR Bank # 272) of 8 µg/mL (≈ 24.1 µM). The MIC (P. aeruginosa KUB No. 5747, AR Bank # 351) was 2 µg/mL (≈ 6.04 µM), the MIC (P. aeruginosa KUB No. 5748, AR Bank # 352) was 4 µg/mL (≈ 12.1 µM) and the MIC (P. aeruginosa KUB No. 5750, AR Bank # 354) was 4 µg/mL (≈ 12.1 µM). For the same compound, the MIC (P. aeruginosa KUB No. 5754, AR Bank # 358) was 4 µg/mL (≈ 12.1 µM), the MIC (P. aeruginosa KUB No. 5755, AR Bank # 359) was 4 µg/mL (≈ 12.1 µM) and the MIC (P. aeruginosa KUB No. 5798, AR Bank # 455) was 1 µg/mL (≈ 3.02 µM). It also gave an MIC (P. aeruginosa KUB No. 5801, AR Bank # 458) of 0.5 µg/mL (≈ 1.51 µM), an MIC (P. aeruginosa KUB No. 5802, AR Bank # 459) of 4 µg/mL (≈ 12.1 µM) and an MIC (P. aeruginosa KUB No. 5804, AR Bank # 862) of 1 µg/mL (≈ 3.02 µM). The MIC (P. aeruginosa KUB No. 5806, AR Bank # 864) was over 64 µg/mL, the MIC (P. aeruginosa KUB No. 5813, AR Bank # 508) was 0.002 µg/mL (≈ 0.00604 µM) and the MIC (P. aeruginosa KUB No. 5815, AR Bank # 510) was 0.004 µg/mL (≈ 0.0121 µM). The MIC (P. aeruginosa KUB No. 5817, AR Bank # 512) was 0.001 µg/mL (≈ 0.00302 µM) and the MIC (P. aeruginosa KUB No. 5820, AR Bank # 515) was over 0.064 µg/mL.

From EP4635500A1, “THERAPEUTIC AGENT FOR BACTERIAL INFECTION” (Sumitomo Pharma Co., Ltd., priority 2022, dated 2024)
